Test results published in patent US20060148683A1, “Detection and treatment of intravascular lesions” (priority 2001, published 2006).
Positions of bridges follow the written chain, without caps; N, C: chain ends. Non-standard residues stand in square brackets, D forms with d. Residues, ends and D or L forms follow the SMILES beside them. ξ: configuration not given here. *: point of attachment. X1 = CN(C)c1ccc2c(-c3cc(C(=O)*)ccc3C(=O)[O-])c3ccc(=[N+](C)C)cc-3oc2c1; Ile(3ξ) = CCC(C)[C@H](N)C(=O)O; Ahx = NCCCCCC(=O)O

How the values were obtained:
Assay type in all cases: binding
fibrin = molecular target: T1, fibrin (Homo sapiens, UniProt P02671+P02675+P02679); test: Confocal fluorescence imaging of fibrin-optical agent complex on lesion formed by cross-linking fibrinogen with thrombin; settings: 0.6 μM optical agent, 0.1 mg/mL fibrinogen, confocal fluorescence imaging ex 555 nm, em 575 nm
T1 sequence (P02671 36-629 limits assumed): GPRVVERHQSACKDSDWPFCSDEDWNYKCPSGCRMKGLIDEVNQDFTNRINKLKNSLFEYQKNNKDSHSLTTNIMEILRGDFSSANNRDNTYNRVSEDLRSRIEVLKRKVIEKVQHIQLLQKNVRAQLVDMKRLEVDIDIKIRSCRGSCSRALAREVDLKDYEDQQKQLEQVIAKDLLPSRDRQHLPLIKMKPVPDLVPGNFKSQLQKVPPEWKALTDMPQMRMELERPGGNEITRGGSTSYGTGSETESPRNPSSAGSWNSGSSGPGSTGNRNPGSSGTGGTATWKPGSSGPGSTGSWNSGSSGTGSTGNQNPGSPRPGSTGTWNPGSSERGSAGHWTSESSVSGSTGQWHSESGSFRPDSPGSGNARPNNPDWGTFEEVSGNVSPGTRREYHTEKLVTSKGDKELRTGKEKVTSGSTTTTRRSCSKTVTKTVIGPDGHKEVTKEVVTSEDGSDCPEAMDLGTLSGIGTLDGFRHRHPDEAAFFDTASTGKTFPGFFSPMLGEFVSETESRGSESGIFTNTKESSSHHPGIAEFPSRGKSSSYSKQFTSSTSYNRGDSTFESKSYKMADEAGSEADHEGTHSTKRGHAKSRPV
T1 sequence (P02675 45-491 limits assumed): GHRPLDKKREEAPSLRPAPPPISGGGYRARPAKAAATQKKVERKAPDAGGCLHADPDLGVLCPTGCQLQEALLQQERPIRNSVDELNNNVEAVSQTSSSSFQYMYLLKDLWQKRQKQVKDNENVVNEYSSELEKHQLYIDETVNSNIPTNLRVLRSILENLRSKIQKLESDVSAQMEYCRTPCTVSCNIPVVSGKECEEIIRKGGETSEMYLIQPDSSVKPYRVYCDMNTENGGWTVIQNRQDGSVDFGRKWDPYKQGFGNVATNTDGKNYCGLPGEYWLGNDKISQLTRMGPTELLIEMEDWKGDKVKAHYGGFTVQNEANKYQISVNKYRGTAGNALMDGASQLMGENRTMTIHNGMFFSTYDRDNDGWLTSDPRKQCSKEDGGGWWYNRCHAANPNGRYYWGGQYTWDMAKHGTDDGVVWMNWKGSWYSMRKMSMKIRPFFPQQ
T1 sequence (P02679 27-437 isoform P02679-2 limits assumed): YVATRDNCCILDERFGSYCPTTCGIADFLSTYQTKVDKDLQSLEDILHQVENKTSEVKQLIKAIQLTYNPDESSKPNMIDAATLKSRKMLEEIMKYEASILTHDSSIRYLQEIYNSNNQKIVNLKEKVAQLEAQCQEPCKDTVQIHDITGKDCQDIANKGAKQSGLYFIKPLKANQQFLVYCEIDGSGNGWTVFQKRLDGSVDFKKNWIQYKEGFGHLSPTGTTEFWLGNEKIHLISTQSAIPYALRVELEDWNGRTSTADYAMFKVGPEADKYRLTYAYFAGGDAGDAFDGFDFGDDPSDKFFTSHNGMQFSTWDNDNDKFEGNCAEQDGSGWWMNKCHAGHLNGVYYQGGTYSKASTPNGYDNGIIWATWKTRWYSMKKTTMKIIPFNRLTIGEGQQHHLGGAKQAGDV
Protocol: (§1) Site 2/fibrin: 0.1 mg/mL of fibrinogen was mixed with 0.6 μM of an optical agent (Structure XI, see FIG. 3) comprising tetramethylrhodamine as the optical dye. The mixture was coated (approximately 4-20 μL) onto a glass slide and cross-linking of fibrinogen was initiated with 1.3 μg/L of thrombin. Clotting occurred in approximately 15 sec. The slide was imaged using confocal fluorescence imaging (ex 555 nm, em 575 nm).
as §1, with “1/fibrin:” for “2/fibrin:”, “X)” for “XI, see FIG. 3)”, “about 15-20 seconds.” for “approximately 15 sec.”

DD(E) fragment of fibrin = molecular target: T2, DD(E) fragment of fibrin (Homo sapiens, UniProt P02671+P02675+P02679, DEL433-453); test: Dissociation constant (Kd) of optical agent for DD(E) fragment of fibrin; settings: 24° C.; read-out: Kd (μM) vs. DD(E) @ 24° C.
T2 construct: complex of the crosslinked D domains of adjacent fibrin monomers with the central E domain of fibrin
Text: Optical agents of the invention include an OD and a FBM covalently bound to each other, either directly or via a linker (OD-L-FBM). The FBM can be a small molecule or a peptide. As used herein, the term “peptide” refers to a chain of amino acids that is about 2 to about 75 amino acids in length (e.g., 3 to 50 amino acids). Affinity of a peptide for fibrin can be expressed in terms of its dissociation constant (Kd), which is the equilibrium constant for the dissociation reaction of the peptide from the DD(E) fragment of fibrin. The term “DD(E) fragment of fibrin” refers to a fibrin subcomponent generated by proteolytic degradation of fibrin with plasmin or trypsin. The DD(E) fragment is a complex of the crosslinked D domains of adjacent fibrin monomers with the central E domain of fibrin (See, for example, Spraggon et al., Nature 389:455462 (1997)). Since DD(E) is a product resulting from the proteolysis of fibrin, one of skill in the art will understand that there may be some slight heterogeneity in its composition. The DD(E) fragment can be biotinylated and immobilized via avidin to a solid substrate (e.g., a multi-well plate). Peptides can be incubated with the immobilized DD(E) fragment in a suitable buffer and binding detected using known methodology. Methods for determining the dissociation constant of the peptide for DD(E) are set forth in WO 01/09188.
As a result of the FBM having affinity for fibrin, the optical agent also has affinity for fibrin. The term “affinity” refers to the capacity of the optical agent to be taken up by, retained by, or bound to the fibrin in the lesion. The affinity of an optical agent can be expressed in terms of its Kd, which is the equilibrium constant for the dissociation reaction of the optical agent from fibrin, and determined as discussed above for the peptide. The dissociation constant of the optical agent for DD(E) can have a value less than about 10 μM (e.g., 0.1 μM to 10 μM). In one embodiment, the dissociation constant value is less than about 5 μM. In another embodiment, the dissociation constant value is less than about 1 μM. The dissociation constant also may have a value less than about 0.3 μM (e.g., 0.2 μM).
In the methods of the present invention, the optical agent forms a fibrin-optical agent complex at the site of the lesion. The ability of the optical agent to form a fibrin-optical agent complex may be measured by examining the optical agent's dissociation constant (Kd) for a DD(E) fragment of fibrin as discussed above.

[1] = molecular target: T3, fibrin on a lesion (plasma clot) (Homo sapiens, UniProt P02671+P02675+P02679); test: Confocal fluorescence imaging of fibrin-optical agent complex on plasma clot formed by clotting human plasma with thrombin; settings: 0.6 μM optical agent, platelet rich human plasma, confocal fluorescence imaging ex 555 nm, em 575 nm
T3 construct: from tissue; host or cells: platelet rich human plasma
T3 sequence (P02671 36-629 limits assumed): T1 sequence (P02671 36-629 limits assumed)
T3 sequence (P02675 45-491 limits assumed): T1 sequence (P02675 45-491 limits assumed)
T3 sequence (P02679 27-437 isoform P02679-2 limits assumed): T1 sequence (P02679 27-437 isoform P02679-2 limits assumed)
Protocol: Site 2/plasma clot: human plasma (platelet rich human plasma) was mixed with 0.6 μM of an optical agent (Structure XI, see FIG. 3) comprising tetramethylrhodamine as the optical dye. The mixture was coated onto a glass slide (approximately 4-20 μL) and clotting of plasma was initiated with 1.3 μg/L of thrombin. Clotting occurred within 15 sec. The slide was imaged using confocal fluorescence imaging (ex 555 nm, em 575 nm).

Q: What does the source list for `CCC(C)[C@H](NC(=O)[C@H](Cc1c[nH]c2ccccc12)NC(=O)[C@@H]1CSSC[C@H](NC(=O)[C@H](CCC(=O)O)NC(=O)[C@H](Cc2c[nH]c3ccccc23)NC(=O)[C@H](CCC(N)=O)NC(=O)CCCCCNC(=O)c2ccc(C(=O)[O-])c(-c3c4ccc(=[N+](C)C)cc-4oc4cc(N(C)C)ccc34)c2)C(=O)N2CCC[C@H]2C(=O)N[C@@H](Cc2ccc(O)cc2)C(=O)NCC(=O)N[C@@H](CC(C)C)C(=O)N1)C(=O)N[C@@H](CCC(N)=O)C(N)=O` (stereo partly drawn) [Structure XI] ({X1-Ahx}-QWECPYGLCW[Ile(3ξ)]Q-NH2; disulfide 4-9)?
A: Detection of fibrin based on signal of fibrin-optical agent complexes (fibrin): Fibrin was detected; Kd (DD(E) fragment of fibrin): 0.09 µM; Detection of fibrin based on signal of fibrin-optical agent complexes [1]: Fibrin was detected
